According to the supplement of paper PMC10307832:

Experiments:
Assay in all cases: relative viability (nuclei count vs DMSO), 5 days (fraction); higher = more cells survive
Tanzisertib + Tozasertib = compound: O[C@H]1CC[C@H](Nc2ncc3nc(Nc4c(F)cc(F)cc4F)n([C@H]4CCOC4)c3n2)CC1 [Tanzisertib] + Cc1cc(Nc2cc(N3CCN(C)CC3)nc(Sc3ccc(NC(=O)C4CC4)cc3)n2)n[nH]1 [Tozasertib] (partner 0.1 µM)
How it was run: (§1)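 Relative viability was taken as the ratio of nuclei in treated wells to nuclei in vehicle wells. Lung cancer cell lines in 1536-well plates received compounds by pin tool one day after seeding, either one drug alone or a fixed anchor-drug dose plus five library-drug doses (not always all listed) in √10 steps. Nuclei were counted on 4× images after 5 days of treatment, and values are medians of duplicate plates.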

[1] = compound: C1CNCCC1C2=CC(=NN2)C3=CC=NC=C3 + Nc1nc2[nH]cc(CCc3ccc(C(=O)N[C@@H](CCC(=O)O)C(=O)O)cc3)c2c(=O)[nH]1 [Pemetrexed] (partner 0.2 µM)
How it was run: as §1

Tanzisertib + Olaparib = compound: O[C@H]1CC[C@H](Nc2ncc3nc(Nc4c(F)cc(F)cc4F)n([C@H]4CCOC4)c3n2)CC1 [Tanzisertib] + O=C(c1cc(Cc2n[nH]c(=O)c3ccccc23)ccc1F)N1CCN(C(=O)C2CC2)CC1 [Olaparib] (partner 8 µM)
How it was run: as §1

[2] = compound: C1CNCCC1C2=CC(=NN2)C3=CC=NC=C3 + O=C(CCCCCCC(=O)Nc1ccccc1)NO [Vorinostat] (partner 1 µM)
How it was run: as §1

Row | Cell Line | relative viability (Tanzisertib + Tozasertib; first compound 0.08 µM) | relative viability (Tanzisertib + Tozasertib; first compound 0.253 µM) | relative viability (Tanzisertib + Tozasertib; first compound 0.8 µM) | relative viability (Tanzisertib + Tozasertib; first compound 2.53 µM) | relative viability (Tanzisertib + Tozasertib; first compound 8 µM) | relative viability ([1]; first compound 0.08 µM) | relative viability ([1]; first compound 0.8 µM) | relative viability ([1]; first compound 2.53 µM) | relative viability ([1]; first compound 8 µM) | relative viability (Tanzisertib + Olaparib; first compound 0.08 µM) | relative viability (Tanzisertib + Olaparib; first compound 0.253 µM) | relative viability (Tanzisertib + Olaparib; first compound 0.8 µM) | relative viability (Tanzisertib + Olaparib; first compound 2.53 µM) | relative viability (Tanzisertib + Olaparib; first compound 8 µM) | relative viability ([2]; first compound 0.08 µM) | relative viability ([2]; first compound 0.8 µM) | relative viability ([2]; first compound 2.53 µM) | relative viability ([2]; first compound 8 µM)
1 | SK-LU-1 | 0.33 | 0.316 | 0.263 | 0.309 | 0.319 | 0.955 | 1.04 | 1.04 | 0.976 | 0.502 | 0.538 | 0.453 | 0.491 | 0.373 | 0.783 | 0.766 | 0.857 | 0.729
2 | LOU-NH91 | 0.778 | 0.683 | 0.681 | 0.652 | 0.596 | 0.403 | 0.63 | 0.367 | 0.351 | 0.948 | 0.896 | 0.989 | 0.89 | 0.727 | 0.925 | 1.02 | 1.05 | 0.955
3 | LXF-289 | 0.236 | 0.165 | 0.149 | 0.17 | 0.147 | 0.936 | 0.967 | 0.856 | 0.814 | 1.13 | 1.02 | 1.12 | 1.02 | 1.13 | 0.783 | 0.785 | 0.723 | 0.766
4 | NCI-H1299 | – | – | – | – | – | – | – | – | – | 0.997 | 0.972 | 0.96 | 1.1 | 1.03 | – | – | – | –
5 | HARA | 0.136 | 0.112 | 0.109 | 0.0917 | 0.103 | 0.238 | 0.236 | 0.228 | 0.159 | 0.876 | 0.844 | 0.715 | 1.28 | 0.849 | 0.669 | 0.62 | 0.527 | 0.481
6 | LU99A | 0.256 | 0.284 | 0.276 | 0.259 | 0.298 | 0.218 | 0.181 | 0.153 | 0.337 | 0.268 | 0.253 | 0.246 | 0.276 | 0.255 | 0.465 | 0.45 | 0.528 | 0.554
7 | 201T | 0.989 | 0.923 | 0.943 | 0.866 | 0.875 | 0.349 | 0.384 | 0.332 | 0.352 | 0.854 | 0.902 | 0.855 | 0.848 | 0.864 | 0.954 | 0.955 | 1.02 | 0.949
8 | HCC-827 | 0.432 | 0.449 | 0.354 | 0.353 | 0.3 | 0.222 | 0.238 | 0.132 | 0.262 | 0.616 | 0.716 | 0.711 | 0.54 | 0.355 | 0.698 | 0.861 | 1.03 | 0.912
9 | NCI-H1666 | 0.609 | 0.698 | 0.611 | 0.656 | 0.592 | 0.788 | 0.804 | 0.873 | 0.909 | 0.754 | 0.801 | 0.747 | 0.729 | 0.768 | 0.964 | 1.06 | 1.07 | 1.08
10 | NCI-H1915 | 0.401 | 0.457 | 0.373 | 0.384 | 0.322 | 0.579 | 0.502 | 0.525 | 0.471 | 0.29 | 0.271 | 0.244 | 0.245 | 0.25 | 0.542 | 0.554 | 0.519 | 0.55
